Measurements published in a melting point compilation (Tetko et al.; mined from patent text by program, amines drawn as free bases though some values may be those of a salt).

Compound `CCOC(=O)COc1ccc(C(=O)c2c(Br)cnn2CC)c(Cl)c1Cl` has a melting point of 90 to 91 °C.
`CC(C)CCC(O)C(CC1CCCCC1)NC(=O)C(Cc1c[nH]cn1)N(C)C(=O)C(Cc1ccccc1)OC(=O)N(C)CCC(=O)N1CCOCC1` (stereo not given) showed a melting point of 80 to 87 °C.
`CC(c1ccnc(N)c1)C(O)(Cn1cncn1)c1ccc(F)cc1F` (stereo not given) showed a melting point of 182 to 185 °C.
Work on `CC(=O)c1c(C)c(NC(=O)CC(C)(C)C)c(C)c2c1OCC2c1ccc(C(C)C)cc1` (stereo not given) yielded a melting point of 176 to 177 °C.
In the case of `CCCc1ncc2cc(Cl)nc(OC)n12`, the melting point was 76 to 77 °C.
In the case of `CCOC(=O)C1=C(C)N(CCOC(=O)c2ccccc2)C(=O)NC1c1ccc(OC)cc1` (stereo not given), the melting point was 75 °C.
In the case of `COC(=O)N1C2CCC1CC(=O)C2`, the melting point was 60 to 61 °C.
In the case of `O=C(Nc1nc(C(F)(F)C(F)(F)F)c(CF)s1)c1cc(C(F)(F)F)cc(C(F)(F)F)c1`, the melting point was 133 to 134 °C.
Compound `OC1(c2cc(F)cc(CC#COC#CCc3cc(F)cc(C4(O)CCOCC4)c3)c2)CCOCC1` has a melting point of 120 to 122 °C.
For `O=C(c1ccccc1F)c1cc2c(c(Cl)c1Cl)OC(C(=O)O)C2` (stereo not given), the melting point was 180 to 181 °C.
In the case of `N#Cc1cccnc1N1CCN(CC(=O)Nc2ccc(F)cc2)CC1`, the melting point was 98 to 100 °C.
`CCc1cnn(CC(=O)O)c1OCCn1cc(C(=O)NCc2ccc(C(F)(F)F)cc2)c(OC(C)C)n1` showed a melting point of 183 to 184 °C.
In the case of `CCc1c(C(=O)C(N)=O)c2c([N+](=O)[O-])cccc2n1Cc1ccccc1`, the melting point was 207 to 208 °C.
`O=C(O)c1ccc(OCc2cccc(Cl)c2)cn1` gave a melting point of 176 to 177 °C.
In the case of `O=c1c2cccnc2c(-c2ccc(Cl)cc2)c2n1CCN2`, the melting point was 260 to 262 °C.
With `COc1ccc(NC(=O)[C@H]2[C@H](c3ccc(S(N)(=O)=O)cc3)C23CCCC3)c(OC)n1` (relative stereo) the melting point was 112 to 115 °C.
Compound `CCCCCCCCCCCCCCCC(=O)NS(=O)(=O)CCCC(=O)O` has a melting point of 156 to 157 °C.
Compound `NC(=O)Nc1ccccc1CCc1n[nH]c2c1c(=O)n(-c1ccccc1)c1ncccc21` has a melting point of 300 to 305 °C.
`CC(C)Oc1cc(N2C(=O)C3COCCN3C2C(=O)O)c(F)cc1Cl` (stereo not given) showed a melting point of 59 to 61 °C.
In the case of `O=C1CCC(=O)N1CC(=O)N1c2ccccc2N(Cc2ccccc2)C(=O)[C@H]2CCC[C@H]21` (relative stereo), the melting point was 212 to 213 °C.
`Cc1cc(F)ccc1Nc1nc(N(C)c2ccccc2)c2cccc(OCCCN(C)C)c2n1` gave a melting point of 110 to 112 °C.
Work on `COc1cc(NC(=O)CCCCCN2CC(C)NC(C)C2)c2nccc(C)c2c1` (stereo not given) yielded a melting point of 94 to 96 °C.
`CCOC(=O)c1c(CCl)nc2sc3c(c2c1-c1ccc(OC)c(OC)c1)CN(C(=O)OCc1ccccc1)CC3` showed a melting point of 125 to 126 °C.
For `Cc1oc2ccccc2c1C(=O)N(Cc1ccccc1)Cc1ccc2cc(O)ccc2c1`, the melting point was 190 to 193 °C.
For `O=C1C(=Cc2ccc(Cl)s2)CCc2cc(OCCn3ccnc3)ccc21`, the melting point was 143 to 144 °C.
`Cc1ccccc1NC(C(=O)O)c1c(Cl)ccc(Cl)c1Cl` (stereo not given) gave a melting point of 193 °C.
Work on `Cc1cccc(C)c1NC(=O)CCNCCNC(C)C` yielded a melting point of 69.5 °C.
Work on `NS(=O)(=O)c1cc(C(=O)O)cc([N+](=O)[O-])c1Oc1ccc(Cl)cc1` yielded a melting point of 248 °C.
Compound `c1cc2sccc2cn1` has a melting point of less than 50 °C.
With `CCCCCOc1cc(C=CC(=O)O)ccc1OC` the melting point was 150 °C.
For `CCCNC(=O)NS(=O)(=O)c1cc2c(cc1OC)OCC(NC(=O)c1cc(Cl)ccc1OC)C2` (stereo not given), the melting point was 203 to 205 °C.
Compound `CCCN(CCCCNC(=O)N1CCN(c2ccccc2)CC1)C1CCc2ncsc2C1` (stereo not given) has a melting point of 120 °C.
Compound `COC(=O)CCc1cc2nc(Cl)ccc2n1S(=O)(=O)c1cccc(OC(F)(F)F)c1` has a melting point of 102 °C.
Work on `CCN(CCO)CCN1C(=O)c2ccccc2C1=O` yielded a melting point of 56 to 58 °C.
With `CCOC(=O)C(Cc1ccc(C#N)cc1)(NC(C)=O)C(=O)OCC` the melting point was 160 to 163 °C.
`CC(C(O)CCC1CC1)C1CCC2C3CC=C4CC(O)CCC4(C)C3CCC12C` (stereo not given) gave a melting point of 174 to 175 °C.
For `Fc1ccc(-c2cc3[nH]ccn3n2)cc1`, the melting point was 225 to 227 °C.
Compound `CCCCCC(CC(=O)Nc1cc(C(N)=O)ccc1C(C)(C)C)c1cc(C)c(OC)cc1OC` (stereo not given) has a melting point of 179 to 180 °C.
For `COc1cc(C(=O)NS(=O)(=O)c2ccccc2C)ccc1Cc1cn(C)c2ccc(C(=O)O)cc12`, the melting point was 255 to 257 °C.
Compound `COCC12CCC(=O)CC1CCC1C3CCC(=O)C3(C)CCC12` (stereo not given) has a melting point of 94 to 96 °C.
In the case of `Cc1cc(S(=O)(=O)Nc2cccc(Br)c2)c2c(C)ccc(C(C)C)cc1-2`, the melting point was 172 to 174 °C.
For `COc1cc(C(C)C)c(Oc2cnc(NC(=O)CNC3CCCC3)nc2N)cc1I`, the melting point was 176 to 178 °C.
With `Fc1ccc(-c2nc(Cl)nc3c2CCC3)cc1` the melting point was 106 to 107 °C.
`Cc1cnccc1-c1sc(NC(=O)c2ccncc2)nc1-c1ccco1` showed a melting point of 156 to 157 °C.
Work on `Cc1nnc(CN(C)C)n1-c1ccc(Br)cc1C(=O)c1ccccn1` yielded a melting point of 127 to 128 °C.
Compound `C[Si](C)(C)c1cccc(NC(=O)c2ccc(C(=O)O)cc2)c1` has a melting point of 211 to 213 °C.
With `CCOC(=O)c1ccc(-c2ccc(-c3ccccc3OCOC)c(-c3ccc4c(c3)C(C)(C)CCC4(C)C)c2)cc1` the melting point was 132 to 135 °C.
For `O=C(O)CCc1cn(Cc2ccc(Cl)cc2Cl)c2ccccc12`, the melting point was 134 to 136 °C.
Work on `Cc1cc(F)ccc1-c1nc(NCCO)nc2c1ccc(=O)n2-c1ccccc1F` yielded a melting point of 120 to 124 °C.
With `CC1(C)COC(=O)N1c1nc(-c2ccc(Br)cc2)cs1` the melting point was 165 to 167 °C.
Compound `CC(CS)C(=O)N(CC(=O)O)CC1CCCO1` (stereo not given) has a melting point of 128 to 130 °C.
With `CCCCCCCCCCCCCCCCN(CCCCCCCCCCCCCCCC)C(CCCCN)C(=O)O` (stereo not given) the melting point was 124 to 125 °C.
In the case of `CC(=O)Nc1ccc(-c2nc(=O)c3ccccc3s2)cc1`, the melting point was 231 to 232 °C.
In the case of `O=S(=O)(NCCCCOc1ccc(-n2cnnn2)cc1)c1ccc(Br)cc1`, the melting point was 109 to 110 °C.
For `O=S(=O)(c1ccc(Cl)cc1)N1CCC[C@@H](Nc2nccc(-c3c(-c4cccc(C=NO)c4)nc4sccn34)n2)C1`, the melting point was 238 to 240 °C.
With `CC(=O)c1cccc(-c2cc3c(=O)n(NS(C)(=O)=O)c(=O)[nH]c3cc2C(F)(F)F)c1` the melting point was 220 to 222 °C.
`CC(Cc1c[nH]c2ccccc12)(NCc1cc2ccccc2o1)C(=O)NCc1cccc(O)c1` (stereo not given) showed a melting point of 60 to 69 °C.
`CCOc1ccccc1C=C1CCc2c1oc1ccc(C(=O)OC)cc1c2=O` gave a melting point of 189 to 192 °C.
For `CNCC(C)C1(c2ccccc2)C=CCC=C1` (stereo not given), the melting point was greater than 250 °C.
In the case of `CC(C)(C)OC(=O)CN1CCC2(CCNCC2)OC1=O`, the melting point was 110 to 115 °C.
In the case of `CCCC(=O)c1cnc2c(NCCCN3CCOCC3)cccc2c1Nc1ccccc1C`, the melting point was 110 to 111 °C.
With `CC(C)(CNc1ccnc2cc(Cl)ccc12)NCc1ccc(Cl)c(C(F)(F)F)c1` the melting point was 158 to 160 °C.
Compound `CCCCCC1CCC(CCc2ccc(-c3ncc(O)cn3)c(F)c2F)CC1` (stereo not given) has a melting point of 157 °C.
Compound `O=C(Nc1cccc(S(=O)(=O)N2CCCC2CO)c1)c1cnn2c(C(F)(F)F)cc(-c3ccc(Cl)cc3)nc12` (stereo not given) has a melting point of 227 to 229 °C.
Compound `COc1ccc(-c2cc(=O)n(Cc3ccc(F)cc3F)nc2-c2ccc(OC)cc2)cc1` has a melting point of 150 to 151 °C.
In the case of `CC1CC(=O)c2c(nc3c(c2N)c2ccccc2n3C)C1` (stereo not given), the melting point was 216 to 217 °C.
With `CCO[C@@H](Cc1ccc(OCCc2nc(-c3ccc(-c4ccccc4)cc3)oc2C)c2ccccc12)C(=O)O` the melting point was 140 to 145 °C.
Work on `CS(=O)(=O)c1c(CC(=O)O)n(Cc2ccc(Cl)cc2)c2ccc(F)cc12` yielded a melting point of 202 °C.
Compound `CN1CCC23c4cccc(O)c4OC2C2CCC3(CC2)C1` (stereo not given) has a melting point of 174 to 176 °C.
Compound `CCCCCCCCCCCCCC(=O)c1c(O)c(C)c(C)c(O)c1CCC` has a melting point of 70 °C.
`CCCCN(CCCC)c1nc(-c2ccc(C(C)(C)C)cc2)cs1` showed a melting point of 48.5 to 49.5 °C.
Work on `Nc1cccc(COc2cccc3c2CN(C2CCC(=O)NC2=O)C3=O)c1` (stereo not given) yielded a melting point of 109 to 113 °C.
`COC(=O)c1nc(-c2ccc(Cl)c(OC)c2F)nc(N)c1C#C[Si](C)(C)C` showed a melting point of 126 to 128 °C.
Work on `O=C1Nc2cccnc2N(C(=O)NCCN2CCCCC2CCCCN2CCCCC2)c2ccccc21` (stereo not given) yielded a melting point of 154 to 155 °C.
Compound `CCCCN1C(=O)CC(C2C(=O)N(CCCC)C(=O)C2c2cc(C(C)(C)C)c(O)c(C(C)(C)C)c2)C1=O` (stereo not given) has a melting point of 151 to 153 °C.
In the case of `O=c1[nH]c2cccnc2n1-c1ccc2c(c1)OCO2`, the melting point was 256 to 258 °C.
`Cc1cc(OCCCCl)c(C)c(C)c1OCCCCl` gave a melting point of 143 °C.
Compound `COC(=O)c1c(C(=O)O)c(O)c2cc(OC)c(OC)c(OC)c2c1-c1cc(OC)c(OC)c(OC)c1` has a melting point of 167 to 171 °C.
For `OC(CCN1CCN(c2cccc(C(F)(F)F)c2)CC1)COc1ccccc1` (stereo not given), the melting point was 83 to 84 °C.
With `CN(C)[C@@H]1Cc2c(O)cccc2C[C@H]1O` (relative stereo) the melting point was 179 to 183 °C.
`COc1ccc(C2=C(c3ccc(OC4CCCCO4)cc3)CCCc3cc(OC4CCCCO4)ccc32)cc1` (stereo not given) showed a melting point of 160 to 161 °C.
In the case of `COc1ccc(CC2SC(=O)NC2=O)c2c1N(Cc1ccc([N+](=O)[O-])cc1)C(=O)CC2` (stereo not given), the melting point was 246 to 247 °C.
With `CCc1cc2oc(=O)c(C#N)c(C)c2cc1CC` the melting point was 169 °C.
For `CSC(C(N)=O)c1ccccc1N` (stereo not given), the melting point was 98.5 to 99.5 °C.
`CCC1(CC(=O)O)OCCc2c1[nH]c1ccc(OCc3ccccc3)cc21` (stereo not given) showed a melting point of 163 to 165 °C.
With `COc1cc2c(cc1OCc1ccccc1)C1Cc3c(Cl)cc(OC)c(OCCO)c3CN1CC2` (stereo not given) the melting point was 154 °C.
Compound `CCOC(=O)c1sc(-c2cccn2C)nc1-c1ccccc1` has a melting point of 86 to 89 °C.
With `CC(C)(O)c1ccc(-c2cnc3[nH]c(=O)n(CC4CCCCC4)c3n2)cc1` the melting point was 226 to 228 °C.
`CCOc1cc(Oc2cc(C)[nH]n2)ccc1[N+](=O)[O-]` gave a melting point of 123 to 124 °C.
For `CCCCn1c(=O)n(CCC)c(=O)c2c3n(nc21)CCCN3C`, the melting point was 94 to 98 °C.
Compound `COc1ccc2c(c1)cc(C(=O)O)n2C(C)=O` has a melting point of 173 to 175 °C.
In the case of `CC(C#N)c1ccc2nc(N)sc2c1` (stereo not given), the melting point was 165 °C.
With `O=C(N[C@H](Cc1ccc(C(F)(F)F)cc1)[C@@H](O)c1cccc2ccccc12)c1ccc(C(F)(F)F)cc1` (racemic) the melting point was 232 to 233 °C.
`COc1cccc(C(=O)c2cc3ccccc3[nH]2)c1` showed a melting point of 119 to 121 °C.
`O=C(CCc1cccnc1)NCCCCC1CCN(P(=O)(c2ccccc2)c2ccccc2)CC1` gave a melting point of 134 to 135 °C.
